Here are results for seven compounds from patent US20250353891A1 (MEDIMMUNE LIMITED, priority 2022, published 2025).

pEC50: −log10 of the molar value. Starred links: 1 amine or outer side, 2 acyl side, 3 side chain; linkers in the order of their positions; H or OH if unused. Non-standard residues stand in square brackets, D forms with d. Residues, ends and D or L forms follow the SMILES beside them. Groups on a side chain read outwards from the residue. *: point of attachment. C20 diacid = O=C(O)CCCCCCCCCCCCCCCCCCC(=O)*; C18 diacid = O=C(O)CCCCCCCCCCCCCCCCC(=O)*; γGlu = O=C(O)[C@H](CCC(=O)[*:2])N[*:1]; αMeF = C[C@](N)(Cc1ccccc1)C(=O)O; AEEA = NCCOCCOCC(=O)O; Aib = CC(C)(N)C(=O)O

For test [1], the target named is human GLP-1 receptor (hGLP-1R) (Homo sapiens, UniProt P43220). As to the kind of experiment: cAMP production (HTRF) in CHO cells expressing hGLP-1R. The class given is cell-based. More on the design: expressed in transfected cells. The conditions noted are these: for pEC50: Table 6, peptides modified at position 17, cAMP in CHO hGLP-1R cells, geometric mean, read-out: hGLP-1R EC50; for % Relative Potency Ratio: Table 6, % GLP-1R activity relative to GLP-1 / % GlucR activity relative to glucagon. An outline of the steps:
(§1)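 Read-out: HTRF cAMP (anti-cAMP cryptate donor, cAMP-d2 acceptor in conjugate/lysis buffer), converted to % Delta F and fitted by 4-parameter logistic for EC50. Cell densities were 1×10^5 cells/mL (hGLP-1R) or 2×10^5 cells/mL (hGCGR). Stimulation lasted 30 min at room temperature.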
For orientation: Cyclic AMP is a second messenger, typically raised through Gs and lowered through Gi signalling.

The target in test [2] is human glucagon receptor (hGCGR) (Homo sapiens, UniProt P47871). As to the kind of experiment: cAMP production (HTRF) in CHO cells expressing hGCGR. As to conditions: Table 6, peptides modified at position 17; cAMP in CHO hGCGR cells; geometric mean; read-out: hGluc-R EC50. More on the design: expressed in transfected cells. Type of test: cell-based. An outline of the steps:
as §1

Sequence of human glucagon receptor (hGCGR) (P47871 26-477): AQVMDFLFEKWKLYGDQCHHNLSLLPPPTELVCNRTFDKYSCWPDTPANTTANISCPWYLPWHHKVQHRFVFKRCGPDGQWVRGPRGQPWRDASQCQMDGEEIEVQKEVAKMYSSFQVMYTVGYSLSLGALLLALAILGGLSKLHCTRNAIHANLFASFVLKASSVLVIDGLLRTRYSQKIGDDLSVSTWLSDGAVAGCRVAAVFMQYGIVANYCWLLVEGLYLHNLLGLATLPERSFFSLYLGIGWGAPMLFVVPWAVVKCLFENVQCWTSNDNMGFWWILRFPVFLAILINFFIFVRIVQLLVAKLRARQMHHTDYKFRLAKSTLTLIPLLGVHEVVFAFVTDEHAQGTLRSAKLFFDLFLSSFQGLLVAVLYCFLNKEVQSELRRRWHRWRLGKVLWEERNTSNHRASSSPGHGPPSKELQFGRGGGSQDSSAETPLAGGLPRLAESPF
Sequence of human GLP-1 receptor (hGLP-1R) (P43220 24-463): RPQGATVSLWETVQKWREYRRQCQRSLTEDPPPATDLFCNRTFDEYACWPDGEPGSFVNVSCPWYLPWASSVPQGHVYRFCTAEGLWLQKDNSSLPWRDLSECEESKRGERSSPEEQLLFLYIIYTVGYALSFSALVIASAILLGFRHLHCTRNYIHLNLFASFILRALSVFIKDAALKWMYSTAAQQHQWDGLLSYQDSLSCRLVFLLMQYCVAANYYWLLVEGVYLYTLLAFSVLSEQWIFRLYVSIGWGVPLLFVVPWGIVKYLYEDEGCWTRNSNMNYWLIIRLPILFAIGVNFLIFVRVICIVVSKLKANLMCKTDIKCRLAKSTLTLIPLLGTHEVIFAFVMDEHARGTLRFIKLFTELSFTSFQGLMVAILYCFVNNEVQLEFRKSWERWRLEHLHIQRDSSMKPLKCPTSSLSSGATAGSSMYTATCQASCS

Take `CC(C)C[C@H](NC(=O)[C@H](Cc1c[nH]c2ccccc12)NC(=O)[C@H](CCCNC(=N)N)NC(=O)[C@@H](NC(=O)[C@H](Cc1ccccc1)NC(=O)[C@H](CC(=O)O)NC(=O)[C@H](CCC(N)=O)NC(=O)[C@H](C)NC(=O)[C@H](CCCNC(=N)N)NC(=O)[C@H](CCCCNC(=O)COCCOCCNC(=O)COCCOCCNC(=O)CC[C@H](NC(=O)CC[C@H](NC(=O)CCCCCCCCCCCCCCCCCCC(=O)O)C(=O)O)C(=O)O)NC(=O)[C@@H](NC(=O)[C@H](CC(=O)O)NC(=O)[C@H](CC(C)C)NC(=O)[C@](C)(Cc1ccccc1)NC(=O)[C@H](CCCCN)NC(=O)[C@H](CO)NC(=O)[C@@H](NC(=O)[C@H](CC(=O)O)NC(=O)[C@H](CO)NC(=O)[C@@H](NC(=O)[C@H](Cc1ccccc1)NC(=O)[C@@H](NC(=O)CNC(=O)[C@H](CCC(N)=O)NC(=O)C(C)(C)NC(=O)[C@@H](N)Cc1c[nH]cn1)[C@@H](C)O)[C@@H](C)O)C(C)C)[C@@H](C)O)C(C)C)C(=O)N[C@@H](CCC(=O)O)C(=O)N[C@@H](C)C(=O)NC(C)(C)C(=O)NCC(=O)O` [Peptide 408] (H-H[Aib]QGTFTSDVSK[αMeF]LDTK([AEEA-AEEA-γGlu-γGlu-C20 diacid])RAQDFVRWLEA[Aib]G-OH; N-terminus assumed): in test [1], the negative-log EC50 (pEC50) was 9.43 and the “% Relative Potency Ratio” value came out at 4.4. In test [2], the pEC50 is 9.08.
As to `CC(C)C[C@H](NC(=O)[C@H](Cc1c[nH]c2ccccc12)NC(=O)[C@H](C)NC(=O)[C@@H](NC(=O)[C@H](Cc1ccccc1)NC(=O)[C@H](CC(=O)O)NC(=O)[C@H](CCCNC(=N)N)NC(=O)[C@H](C)NC(=O)[C@H](CCCNC(=N)N)NC(=O)[C@H](CCCCNC(=O)COCCOCCNC(=O)COCCOCCNC(=O)CC[C@H](NC(=O)CCCCCCCCCCCCCCCCC(=O)O)C(=O)O)NC(=O)[C@@H](NC(=O)[C@H](CC(=O)O)NC(=O)[C@H](CC(C)C)NC(=O)[C@](C)(Cc1ccccc1)NC(=O)[C@H](CCCCN)NC(=O)[C@H](CO)NC(=O)[C@@H](NC(=O)[C@H](CC(=O)O)NC(=O)[C@H](CO)NC(=O)[C@@H](NC(=O)[C@H](Cc1ccccc1)NC(=O)[C@@H](NC(=O)CNC(=O)[C@H](CCC(N)=O)NC(=O)C(C)(C)NC(=O)[C@@H](N)Cc1c[nH]cn1)[C@@H](C)O)[C@@H](C)O)C(C)C)[C@@H](C)O)C(C)C)C(=O)N[C@@H](CC(C)C)C(=O)NC(C)(C)C(=O)N[C@H](C(=O)N[C@@H](CCC(=O)O)C(=O)O)[C@@H](C)O` [Peptide 409] (H-H[Aib]QGTFTSDVSK[αMeF]LDTK([AEEA-AEEA-γGlu-C18 diacid])RARDFVAWLL[Aib]TE-OH; N-terminus assumed), the negative logarithm of the EC50 (pEC50) in test [1] is 10.64; in test [2], 9.69. Moreover, the “% Relative Potency Ratio” value in test [1] was determined as 17.7.
Regarding `CC(C)C[C@H](NC(=O)[C@H](Cc1c[nH]c2ccccc12)NC(=O)[C@H](C)NC(=O)[C@@H](NC(=O)[C@H](Cc1ccccc1)NC(=O)[C@H](CC(=O)O)NC(=O)[C@H](CCCNC(=N)N)NC(=O)[C@H](C)NC(=O)[C@H](CCCNC(=N)N)NC(=O)[C@H](CCCCNC(=O)COCCOCCNC(=O)COCCOCCNC(=O)CC[C@H](NC(=O)CCCCCCCCCCCCCCCCCCC(=O)O)C(=O)O)NC(=O)[C@@H](NC(=O)[C@H](CC(=O)O)NC(=O)[C@H](CC(C)C)NC(=O)[C@](C)(Cc1ccccc1)NC(=O)[C@H](CCCCN)NC(=O)[C@H](CO)NC(=O)[C@@H](NC(=O)[C@H](CC(=O)O)NC(=O)[C@H](CO)NC(=O)[C@@H](NC(=O)[C@H](Cc1ccccc1)NC(=O)[C@@H](NC(=O)CNC(=O)[C@H](CCC(N)=O)NC(=O)C(C)(C)NC(=O)[C@@H](N)Cc1c[nH]cn1)[C@@H](C)O)[C@@H](C)O)C(C)C)[C@@H](C)O)C(C)C)C(=O)N[C@@H](CC(C)C)C(=O)NC(C)(C)C(=O)N[C@H](C(=O)N[C@@H](CCC(=O)O)C(=O)O)[C@@H](C)O` [Peptide 410] (H-H[Aib]QGTFTSDVSK[αMeF]LDTK([AEEA-AEEA-γGlu-C20 diacid])RARDFVAWLL[Aib]TE-OH; N-terminus assumed), the negative logarithm of the EC50 (pEC50) in test [1] was 10.11; in test [2] it was 9.34. The “% Relative Potency Ratio” value in test [1] stood at 11.5.
The corresponding values for `CC(C)C[C@H](NC(=O)[C@H](Cc1c[nH]c2ccccc12)NC(=O)[C@H](C)NC(=O)[C@@H](NC(=O)[C@H](Cc1ccccc1)NC(=O)[C@H](CC(=O)O)NC(=O)[C@H](CCC(N)=O)NC(=O)[C@H](C)NC(=O)[C@H](CCCNC(=N)N)NC(=O)[C@H](CCCCNC(=O)COCCOCCNC(=O)COCCOCCNC(=O)CC[C@H](NC(=O)CCCCCCCCCCCCCCCCC(=O)O)C(=O)O)NC(=O)[C@@H](NC(=O)[C@H](CC(=O)O)NC(=O)[C@H](CC(C)C)NC(=O)[C@](C)(Cc1ccccc1)NC(=O)[C@H](CCCCN)NC(=O)[C@H](CO)NC(=O)[C@@H](NC(=O)[C@H](CC(=O)O)NC(=O)[C@H](CO)NC(=O)[C@@H](NC(=O)[C@H](Cc1ccccc1)NC(=O)[C@@H](NC(=O)CNC(=O)[C@H](CCC(N)=O)NC(=O)C(C)(C)NC(=O)[C@@H](N)Cc1c[nH]cn1)[C@@H](C)O)[C@@H](C)O)C(C)C)[C@@H](C)O)C(C)C)C(=O)N[C@@H](CCC(=O)O)C(=O)N[C@@H](C)C(=O)NCC(=O)NCC(=O)O` [Peptide 411] (H-H[Aib]QGTFTSDVSK[αMeF]LDTK([AEEA-AEEA-γGlu-C18 diacid])RAQDFVAWLEAGG-OH; N-terminus assumed) are 10.01, 9.42 and 7.6.
The matching figures for `CC(C)C[C@H](NC(=O)[C@H](Cc1c[nH]c2ccccc12)NC(=O)[C@H](C)NC(=O)[C@@H](NC(=O)[C@H](Cc1ccccc1)NC(=O)[C@H](CC(=O)O)NC(=O)[C@H](CCC(N)=O)NC(=O)[C@H](C)NC(=O)[C@H](CCCNC(=N)N)NC(=O)[C@H](CCCCNC(=O)COCCOCCNC(=O)COCCOCCNC(=O)CC[C@H](NC(=O)CCCCCCCCCCCCCCCCCCC(=O)O)C(=O)O)NC(=O)[C@@H](NC(=O)[C@H](CC(=O)O)NC(=O)[C@H](CC(C)C)NC(=O)[C@](C)(Cc1ccccc1)NC(=O)[C@H](CCCCN)NC(=O)[C@H](CO)NC(=O)[C@@H](NC(=O)[C@H](CC(=O)O)NC(=O)[C@H](CO)NC(=O)[C@@H](NC(=O)[C@H](Cc1ccccc1)NC(=O)[C@@H](NC(=O)CNC(=O)[C@H](CCC(N)=O)NC(=O)C(C)(C)NC(=O)[C@@H](N)Cc1c[nH]cn1)[C@@H](C)O)[C@@H](C)O)C(C)C)[C@@H](C)O)C(C)C)C(=O)N[C@@H](CCC(=O)O)C(=O)N[C@@H](C)C(=O)NCC(=O)NCC(=O)O` [Peptide 412] (H-H[Aib]QGTFTSDVSK[αMeF]LDTK([AEEA-AEEA-γGlu-C20 diacid])RAQDFVAWLEAGG-OH; N-terminus assumed): 9.73, 9.40 and 4.2.
On to `CC(C)C[C@H](NC(=O)[C@H](Cc1c[nH]c2ccccc12)NC(=O)[C@H](C)NC(=O)[C@@H](NC(=O)[C@H](Cc1ccccc1)NC(=O)[C@H](CC(=O)O)NC(=O)[C@H](CCC(N)=O)NC(=O)[C@H](C)NC(=O)[C@H](CCCNC(=N)N)NC(=O)[C@H](CCCCNC(=O)COCCOCCNC(=O)COCCOCCNC(=O)CC[C@H](NC(=O)CC[C@H](NC(=O)CCCCCCCCCCCCCCCCCCC(=O)O)C(=O)O)C(=O)O)NC(=O)[C@@H](NC(=O)[C@H](CC(=O)O)NC(=O)[C@H](CC(C)C)NC(=O)[C@](C)(Cc1ccccc1)NC(=O)[C@H](CCCCN)NC(=O)[C@H](CO)NC(=O)[C@@H](NC(=O)[C@H](CC(=O)O)NC(=O)[C@H](CO)NC(=O)[C@@H](NC(=O)[C@H](Cc1ccccc1)NC(=O)[C@@H](NC(=O)CNC(=O)[C@H](CCC(N)=O)NC(=O)C(C)(C)NC(=O)[C@@H](N)Cc1c[nH]cn1)[C@@H](C)O)[C@@H](C)O)C(C)C)[C@@H](C)O)C(C)C)C(=O)N[C@@H](CCC(=O)O)C(=O)N[C@@H](C)C(=O)NCC(=O)NCC(=O)O` [Peptide 413], for which, in test [1], the negative logarithm of the EC50 (pEC50) is 9.39 and the “% Relative Potency Ratio” value is 5.0. In test [2], the negative-log EC50 (pEC50) was 8.99.
For the compound `CC(C)C[C@H](NC(=O)[C@H](Cc1c[nH]c2ccccc12)NC(=O)[C@H](CCCNC(=N)N)NC(=O)[C@@H](NC(=O)[C@H](Cc1ccccc1)NC(=O)[C@H](CC(=O)O)NC(=O)[C@H](CCCNC(=N)N)NC(=O)[C@H](C)NC(=O)[C@H](CCCNC(=N)N)NC(=O)[C@H](CCCCNC(=O)COCCOCCNC(=O)COCCOCCNC(=O)CC[C@H](NC(=O)CCCCCCCCCCCCCCCCC(=O)O)C(=O)O)NC(=O)[C@H](CCCCN)NC(=O)[C@H](CC(=O)O)NC(=O)[C@H](CC(C)C)NC(=O)[C@](C)(Cc1ccccc1)NC(=O)[C@H](CCCCN)NC(=O)[C@H](CO)NC(=O)[C@@H](NC(=O)[C@H](CC(=O)O)NC(=O)[C@H](CO)NC(=O)[C@@H](NC(=O)[C@H](Cc1ccccc1)NC(=O)[C@@H](NC(=O)CNC(=O)[C@H](CCC(N)=O)NC(=O)C(C)(C)NC(=O)[C@@H](N)Cc1c[nH]cn1)[C@@H](C)O)[C@@H](C)O)C(C)C)C(C)C)C(=O)N[C@@H](CC(C)C)C(=O)NC(C)(C)C(=O)N[C@@H](CCC(=O)O)C(=O)O` [Peptide 414] (H-H[Aib]QGTFTSDVSK[αMeF]LDKK([AEEA-AEEA-γGlu-C18 diacid])RARDFVRWLL[Aib]E-OH; N-terminus assumed), in test [1], the pEC50 was 10.49 and the “% Relative Potency Ratio” value was determined as 1.6. Also, the pEC50 in test [2] is 10.57.

Usually pEC50 stands for the EC50 on a negative log10 scale, so that one unit is a factor of ten.
